Literature values in US20250230478A1, “COMBINATION OF NUCLEIC ACID SEQUENCES ENCODING PROTEINS DERIVED FROM HELICHRYSUM UMBRACULIGERUM, AND ANY […], TISSUE, AND ORGANISM COMPRISING SAME” (YEDA RESEARCH AND DEVELOPMENT CO. LTD., priority 2022, published 2025).

Experiments:
CB1 receptor = CB1 receptor (Homo sapiens, UniProt P21554)
5-HT1A receptor = biological target: T1, 5-HT1A receptor (Homo sapiens, UniProt P08908)
T1 sequence (P08908 1-422): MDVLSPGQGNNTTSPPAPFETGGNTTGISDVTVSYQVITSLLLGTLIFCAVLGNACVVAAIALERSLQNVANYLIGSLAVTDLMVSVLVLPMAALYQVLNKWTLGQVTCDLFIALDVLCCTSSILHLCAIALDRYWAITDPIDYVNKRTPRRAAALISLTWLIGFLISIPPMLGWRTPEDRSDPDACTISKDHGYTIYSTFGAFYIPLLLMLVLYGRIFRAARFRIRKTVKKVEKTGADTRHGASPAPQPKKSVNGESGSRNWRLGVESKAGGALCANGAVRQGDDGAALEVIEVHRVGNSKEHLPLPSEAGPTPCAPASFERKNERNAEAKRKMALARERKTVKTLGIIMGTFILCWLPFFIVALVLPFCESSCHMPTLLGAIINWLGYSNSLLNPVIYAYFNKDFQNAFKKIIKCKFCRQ

Sequence of CB1 receptor (P21554 whole entry): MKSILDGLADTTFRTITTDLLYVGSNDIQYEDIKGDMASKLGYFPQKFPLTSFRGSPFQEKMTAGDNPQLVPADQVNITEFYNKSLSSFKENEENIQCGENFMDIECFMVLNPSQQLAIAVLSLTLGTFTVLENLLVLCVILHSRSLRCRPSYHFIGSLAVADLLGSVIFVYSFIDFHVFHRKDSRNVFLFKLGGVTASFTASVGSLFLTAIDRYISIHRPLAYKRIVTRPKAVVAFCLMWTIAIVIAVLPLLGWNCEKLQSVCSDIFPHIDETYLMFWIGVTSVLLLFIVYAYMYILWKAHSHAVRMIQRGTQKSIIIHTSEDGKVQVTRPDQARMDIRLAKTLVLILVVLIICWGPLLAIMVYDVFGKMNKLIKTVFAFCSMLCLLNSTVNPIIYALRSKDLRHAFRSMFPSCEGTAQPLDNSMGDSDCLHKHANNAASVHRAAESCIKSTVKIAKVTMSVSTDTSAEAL

## CCCCCc1cc(O)c(C/C=C(\C)CCC=C(C)C)c(O)c1 [CBG, cannabigerol]
CB1 receptor
  affinity as CB1 receptor antagonist: low affinity
α2-adrenergic receptor
  affinity as α2-adrenergic receptor agonist: high affinity
5-HT1A receptor
  affinity as 5-HT1A receptor antagonist: moderate affinity
